Laboratory results taken from PubChem BioAssay AID264 (DTP/NCI, 2004).
“And” between values parts separate entries of the source, which are not always exact repeats. Identical values can stand only once. Results filed as inconclusive are left out.

System: nude mice, LX-1 lung xenograft intrarenal, tumor weight T/C
Test: NCI In Vivo Anticancer Drug Screen. Data for tumor model Human Lung LX-1 Xenograft (intrarenal inoculation) in NU/NU Swiss (nude) mice
Settings: endpoint: mean tumor weight change, higher = larger tumour
Experimental: The antitumor activity of compounds was measured in mice bearing transplantable tumors. Survival or tumor size were measured and the results are expressed as the measurement made in the treated group (T) divided by the measurement made in the vehicle treated control group (C). The tumor model used in this assay is Human Lung LX-1 Xenograft (intrarenal inoculation) in NU/NU Swiss (nude) mice

## CC(=O)Nc1ccc(S(=O)(=O)CO)cc1
dose: 300.0 mg/kg/injection, schedule: Q04DX003 (sc), vehicle: saline with Tween-80
  T/C: 90 % of control
dose: 600.0 mg/kg/injection, schedule: Q04DX003 (sc), vehicle: saline with Tween-80
  T/C: 66 % of control
dose: 1200.0 mg/kg/injection, schedule: Q04DX003 (sc), vehicle: saline with Tween-80
  T/C: 96 % of control
dose: 2400.0 mg/kg/injection, schedule: Q04DX003 (sc), vehicle: saline with Tween-80
  T/C: 67 % of control

## COc1cccc2c1C(=O)c1c(O)c3c(c(O)c1C2=O)CC(O)(/C(C)=N/NC(=O)CCC(=O)N/N=C(\C)C1(O)Cc2c(O)c4c(c(O)c2C(OC2CC(N)C(O)C(C)O2)C1)C(=O)c1c(OC)cccc1C4=O)CC3OC1CC(N)C(O)C(C)O1 (centres undefined)
dose: 6.25 mg/kg/injection, schedule: Q01DX010 (sc), vehicle: water
  T/C: 21 % of control (2×) and 27 % of control
dose: 12.5 mg/kg/injection, schedule: Q01DX010 (sc), vehicle: water
  T/C: 31 % of control and 46 % of control and 51 % of control

## CCC1CC2CN(CCc3c([nH]c4ccccc34)C(C(=O)OC)(c3cc4c(cc3OC)N(C)C3C(O)(C(=O)OC)C(OC(C)=O)C5(CC)C=CCN6CCC43C65)C2)C1 (centres undefined)
dose: 4.0 mg/kg/injection, schedule: Q04DX003 (sc), vehicle: saline
  T/C: 63 % of control and 64 % of control
dose: 4.0 mg/kg/injection, schedule: Q04DX003 (sc), vehicle: suspension in saline
  T/C: 31 % of control and 33 % of control
dose: 16.0 mg/kg/injection, schedule: Q04DX003 (sc), vehicle: saline
  T/C: 6 % of control and 12 % of control

## C=C(C)[C@H]1Cc2c(ccc3c2O[C@@H]2COc4cc(OC)c(OC)cc4[C@@H]2C3=O)O1
dose: 2.0 mg/kg/injection, schedule: Q01DX010 (sc), vehicle: saline with Tween-80
  T/C: 286 % of control
dose: 4.0 mg/kg/injection, schedule: Q01DX010 (sc), vehicle: saline with Tween-80
  T/C: 62 % of control

## C=C1CC2(OC1=O)C(=O)N(C)c1ccc(I)cc12 (centres undefined)
dose: 150.0 mg/kg/injection, schedule: Q04DX003 (sc), vehicle: suspension in saline
  T/C: 68 % of control
dose: 300.0 mg/kg/injection, schedule: Q04DX003 (sc), vehicle: suspension in saline
  T/C: 34 % of control
dose: 600.0 mg/kg/injection, schedule: Q04DX003 (sc), vehicle: suspension in saline
  T/C: 34 % of control
dose: 1200.0 mg/kg/injection, schedule: Q04DX003 (sc), vehicle: suspension in saline
  T/C: 62 % of control

## CC1(c2ccc(Cl)cc2)OC(=O)C(=Cc2ccc([N+](=O)[O-])s2)C(=O)O1 (centres undefined)
dose: 200.0 mg/kg/injection, schedule: Q04DX003 (sc), vehicle: saline with Tween-80
  T/C: 111 % of control
dose: 800.0 mg/kg/injection, schedule: Q04DX003 (sc), vehicle: saline with Tween-80
  T/C: 80 % of control
dose: 1600.0 mg/kg/injection, schedule: Q04DX003 (sc), vehicle: saline with Tween-80
  T/C: 118 % of control

## Nc1ncnc2c1ccn2C1OC(CO)C(O)C1O (centres undefined)
dose: 1.0 mg/kg/injection, schedule: Q01DX010 (sc), vehicle: Klucel (hydroxypropylcellulose) (HPC)
  T/C: 85 % of control
dose: 2.0 mg/kg/injection, schedule: Q01DX010 (sc), vehicle: Klucel (hydroxypropylcellulose) (HPC)
  T/C: 101 % of control
dose: 4.0 mg/kg/injection, schedule: Q01DX010 (sc), vehicle: Klucel (hydroxypropylcellulose) (HPC)
  T/C: 53 % of control

## Cn1cnc([N+](=O)[O-])c1S(=O)(=O)NCN1CCOCC1
dose: 25.0 mg/kg/injection, schedule: Q01DX010 (sc), vehicle: Klucel (hydroxypropylcellulose) (HPC)
  T/C: 34 % of control
dose: 50.0 mg/kg/injection, schedule: Q01DX010 (sc), vehicle: Klucel (hydroxypropylcellulose) (HPC)
  T/C: 67 % of control
dose: 100.0 mg/kg/injection, schedule: Q01DX010 (sc), vehicle: Klucel (hydroxypropylcellulose) (HPC)
  T/C: 43 % of control

## Nc1nc(F)nc2c1ncn2C1OC(COP(=O)(O)O)C(O)C1O (centres undefined)
dose: 50.0 mg/kg/injection, schedule: Q01DX010 (sc), vehicle: saline
  T/C: 55 % of control
dose: 50.0 mg/kg/injection, schedule: Q01DX010 (sc), vehicle: suspension in saline
  T/C: 53 % of control and 70 % of control
dose: 100.0 mg/kg/injection, schedule: Q01DX010 (sc), vehicle: saline
  T/C: 20 % of control and 30 % of control
dose: 100.0 mg/kg/injection, schedule: Q01DX010 (sc), vehicle: suspension in saline
  T/C: 56 % of control and 59 % of control
dose: 200.0 mg/kg/injection, schedule: Q01DX010 (sc), vehicle: suspension in saline
  T/C: 6 % of control and 18 % of control
dose: 400.0 mg/kg/injection, schedule: Q01DX010 (sc), vehicle: saline
  T/C: -72 % of control
dose: 400.0 mg/kg/injection, schedule: Q01DX010 (sc), vehicle: suspension in saline
  T/C: -62 % of control

## Cc1c2cc[n+](CCN3CCCCC3)cc2c(C)c2c1[nH]c1ccc(O)cc12
dose: 50.0 mg/kg/injection, schedule: Q04DX003 (sc), vehicle: suspension in saline
  T/C: 83 % of control
dose: 100.0 mg/kg/injection, schedule: Q04DX003 (sc), vehicle: suspension in saline
  T/C: 68 % of control

## CC1(C)OCC(CO)(Nc2nc(N3CC3)nc(N3CC3)n2)CO1
dose: 1.25 mg/kg/injection, schedule: Q01DX010 (sc), vehicle: saline
  T/C: 74 % of control

## O=S(=O)(SC(S(=O)(=O)c1ccccc1)S(=O)(=O)c1ccccc1)c1ccccc1
dose: 100.0 mg/kg/injection, schedule: Q04DX003 (sc), vehicle: Klucel (hydroxypropylcellulose) (HPC)
  T/C: 115 % of control
dose: 400.0 mg/kg/injection, schedule: Q04DX003 (sc), vehicle: Klucel (hydroxypropylcellulose) (HPC)
  T/C: 69 % of control
dose: 600.0 mg/kg/injection, schedule: Q04DX003 (sc), vehicle: Klucel (hydroxypropylcellulose) (HPC)
  T/C: 63 % of control
dose: 800.0 mg/kg/injection, schedule: Q04DX003 (sc), vehicle: Klucel (hydroxypropylcellulose) (HPC)
  T/C: 77 % of control
dose: 1200.0 mg/kg/injection, schedule: Q04DX003 (sc), vehicle: Klucel (hydroxypropylcellulose) (HPC)
  T/C: 65 % of control
